Reference: US20160039825A1 (BIOGEN MA INC., priority 2013, published 2016)

The compounds below were run against T1, Human ATX protein (Homo sapiens, UniProt Q13822) (assay: Autotaxin (ATX) assay, FRET with FS-3 substrate). Details: upper bound bins (no greater than 100, 250 or 500 nM); FS-3 2 μM, ATX 1.0 μg/mL.
T1 construct: made in house
Assay type: biochemical
Summary of the method: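 In-house human ATX (1.0 μg/mL final) was preincubated with compound for 30 min at room temperature in Tris buffer pH 7.4 with NaCl, KCl, CaCl2, MgCl2 and 1 mg/mL fatty acid-free BSA. FS-3 (2 μM final) was added and the plate shaken 2 h at room temperature in the dark. Fluorescence was read at ex 485/em 538 nm.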
For `O=C(O)c1nn2c(c1Br)CN(C(=O)OCc1cc(C(F)(F)F)cc(C(F)(F)F)c1)CCC2` [Example 115, 5-(((3,5-Bis(trifluoromethyl)benzyl)oxy)carbonyl)-3-bromo-5,6,7,8-tetrahydro-4H-pyrazolo[1,5-a][1,4]diazepine-2-carboxylic acid], the IC50 was at most 100 nM.
`O=C(O)c1cc2n(n1)CCCN(C(=O)CNc1cc(C(F)(F)F)cc(C(F)(F)F)c1)C2` [Example 116, 5-(2-((3,5-Bis(trifluoromethyl)phenyl)amino)acetyl)-5,6,7,8-tetrahydro-4H-pyrazolo[1,5-a][1,4]diazepine-2-carboxylic acid] was tested, and the IC50 was at most 500 nM.
`O=C(O)c1cc2n(n1)CCCN(C(=O)COc1cc(C(F)(F)F)cc(C(F)(F)F)c1)C2` [Example 117, 5-(2-(3,5-Bis(trifluoromethyl)phenoxy)acetyl)-5,6,7,8-tetrahydro-4H-pyrazolo[1,5-a][1,4]diazepine-2-carboxylic acid] showed an IC50 of at most 500 nM.
`Cc1noc(-c2cc3n(n2)CCCN(C(=O)OCc2cc(C(F)(F)F)cc(C(F)(F)F)c2)C3)n1` [Example 118, 3,5-Bis(trifluoromethyl)benzyl 2-(3-methyl-1,2,4-oxadiazol-5-yl)-7,8-dihydro-4H-pyrazolo[1,5-a][1,4]diazepine-5(6H)-carboxylate] showed an IC50 of at most 100 nM.
For `Cc1nnc(-c2cc3n(n2)CCCN(C(=O)OCc2cc(C(F)(F)F)cc(C(F)(F)F)c2)C3)o1` [Example 119, 3,5-Bis(trifluoromethyl)benzyl 2-(5-methyl-1,3,4-oxadiazol-2-yl)-7,8-dihydro-4H-pyrazolo[1,5-a][1,4]diazepine-5(6H)-carboxylate], the IC50 was at most 100 nM.
For `N#Cc1cc2n(n1)CCCN(C(=O)OCc1cc(Cl)cc(Cl)c1)C2` [Example 122, 3,5-Dichlorobenzyl 2-cyano-7,8-dihydro-4H-pyrazolo[1,5-a][1,4]diazepine-5(6H)-carboxylate], the IC50 was at most 250 nM.
`O=C(OCc1cc(Cl)cc(Cl)c1)N1CCCn2nc(-c3nnn[nH]3)cc2C1` [Example 123, 3,5-Dichlorobenzyl 2-(1H-tetrazol-5-yl)-7,8-dihydro-4H-pyrazolo[1,5-a][1,4]diazepine-5(6H)-carboxylate] was tested, and the IC50 was at most 250 nM.
`Cc1cc2n(n1)CCCN(C(=O)OCc1cc(C(F)(F)F)cc(C(F)(F)F)c1)C2` [Example 124, 3,5-Bis(trifluoromethyl)benzyl 2-methyl-7,8-dihydro-4H-pyrazolo[1,5-a][1,4]diazepine-5(6H)-carboxylate] showed an IC50 of at most 100 nM.
For `N#Cc1cc2n(n1)CCCN(C(=O)OCc1cc(C(F)(F)F)cc(C(F)(F)F)c1)C2` [Example 125, 3,5-Bis(trifluoromethyl)benzyl 2-cyano-7,8-dihydro-4H-pyrazolo[1,5-a][1,4]diazepine-5(6H)-carboxylate], the IC50 was at most 100 nM.
Work on `O=C(OCc1cc(F)cc(C(F)(F)F)c1)N1CCn2cc(C(F)(F)F)nc2C1` [Example 126, 3-Fluoro-5-(trifluoromethyl)benzyl 2-(trifluoromethyl)-5,6-dihydroimidazo[1,2-a]pyrazine-7(8H)-carboxylate] yielded an IC50 of at most 500 nM.
For `O=C(OCc1cc(C(F)(F)F)cc(C(F)(F)F)c1)N1CCn2cc(C(F)(F)F)nc2C1` [Example 127, 3,5-Bis(trifluoromethyl)benzyl 2-(trifluoromethyl)-5,6-dihydroimidazo[1,2-a]pyrazine-7(8H)-carboxylate], the IC50 was at most 100 nM.
`Cc1cc2n(n1)CCCN(C(=O)OCc1cc(F)cc(C(F)(F)F)c1)C2` [Example 128, 3-Fluoro-5-(trifluoromethyl)benzyl 2-methyl-7,8-dihydro-4H-pyrazolo[1,5-a][1,4]diazepine-5(6H)-carboxylate] showed an IC50 of at most 250 nM.
In the case of `N#Cc1cc2n(n1)CCCN(C(=O)OCc1cc(F)cc(C(F)(F)F)c1)C2` [Example 129], the IC50 is reported as at most 500 nM.
Compound `Cc1cc2n(n1)CCCN(C(=O)OCc1cc(Cl)cc(Cl)c1)C2` [Example 130, 3,5-Dichlorobenzyl 2-methyl-7,8-dihydro-4H-pyrazolo[1,5-a][1,4]diazepine-5(6H)-carboxylate] has an IC50 of at most 500 nM.
Work on `O=C(OCc1cc(Cl)cc(Cl)c1)N1CCn2cc(C(F)(F)F)nc2C1` [Example 131, 3,5-Dichlorobenzyl 2-(trifluoromethyl)-5,6-dihydroimidazo[1,2-a]pyrazine-7(8H)-carboxylate] yielded an IC50 of at most 500 nM.
With `O=C(OCc1cc(C(F)(F)F)cc(C(F)(F)F)c1)N1CCCn2cncc2C1` [Example 132, 3,5-Bis(trifluoromethyl)benzyl 6,7-dihydro-5H-imidazo[1,5-a][1,4]diazepine-8(9H)-carboxylate] the IC50 was at most 100 nM.
`O=C(OCc1cc(Cl)cc(Cl)c1)N1CCCn2cncc2C1` [Example 133, 3,5-Dichlorobenzyl 6,7-dihydro-5H-imidazo[1,5-a][1,4]diazepine-8(9H)-carboxylate] gave an IC50 of at most 100 nM.
In the case of `O=C(OCc1cc(C(F)(F)F)cc(C(F)(F)F)c1)N1CCn2c(nnc2C(F)(F)F)C1` [Example 134, 3,5-Bis(trifluoromethyl)benzyl 3-(trifluoromethyl)-5,6-dihydro-[1,2,4]triazolo[4,3-a]pyrazine-7(8H)-carboxylate], the IC50 is reported as at most 500 nM.
Compound `O=C(OCc1cc(Cl)cc(C(F)(F)F)c1)N1CCn2c(nnc2C(F)(F)F)C1` [Example 135, 3-Chloro-5-(trifluoromethyl)benzyl 3-(trifluoromethyl)-5,6-dihydro-[1,2,4]triazolo[4,3-a]pyrazine-7(8H)-carboxylate] has an IC50 of at most 500 nM.
With `O=C(OCc1cc(C(F)(F)F)cc(C(F)(F)F)c1)N1CCCn2nc(-c3nnn[nH]3)cc2C1` [Example 136, 3,5-Bis(trifluoromethyl)benzyl 2-(1H-tetrazol-5-yl)-7,8-dihydro-4H-pyrazolo[1,5-a][1,4]diazepine-5(6H)-carboxylate] the IC50 was at most 100 nM.
`CCOC(=O)c1cc2n(n1)CCCN(C(=O)OCCc1cc(C(F)(F)F)cc(C(F)(F)F)c1)C2` [Example 141, 5-(3,5-Bis(trifluoromethyl)phenethyl) 2-ethyl 7,8-dihydro-4H-pyrazolo[1,5-a][1,4]diazepine-2,5(6H)-dicarboxylate] showed an IC50 of at most 500 nM.
Work on `CON(C)C(=O)c1cc2n(n1)CCCN(C(=O)OCc1cc(C(F)(F)F)cc(C(F)(F)F)c1)C2` [Example 144, 3,5-Bis(trifluoromethyl)benzyl 2-(methoxy(methyl)carbamoyl)-7,8-dihydro-4H-pyrazolo[1,5-a][1,4]diazepine-5(6H)-carboxylate] yielded an IC50 of at most 100 nM.
Work on `CC(=O)c1cc2n(n1)CCCN(C(=O)OCc1cc(C(F)(F)F)cc(C(F)(F)F)c1)C2` [Example 145, 3,5-Bis(trifluoromethyl)benzyl 2-acetyl-7,8-dihydro-4H-pyrazolo[1,5-a][1,4]diazepine-5(6H)-carboxylate] yielded an IC50 of at most 100 nM.
For `CC(O)c1cc2n(n1)CCCN(C(=O)OCc1cc(C(F)(F)F)cc(C(F)(F)F)c1)C2` (stereo not drawn) [Example 146, 3,5-Bis(trifluoromethyl)benzyl 2-(1-hydroxyethyl)-7,8-dihydro-4H-pyrazolo[1,5-a][1,4]diazepine-5(6H)-carboxylate], the IC50 was at most 100 nM.
In the case of `CC(N)c1cc2n(n1)CCCN(C(=O)OCc1cc(C(F)(F)F)cc(C(F)(F)F)c1)C2` (stereo not drawn) [Example 147, 3,5-Bis(trifluoromethyl)benzyl 2-(1-aminoethyl)-7,8-dihydro-4H-pyrazolo[1,5-a][1,4]diazepine-5(6H)-carboxylate], the IC50 is reported as at most 500 nM.
In the case of `CC(c1cc2n(n1)CCCN(C(=O)OCc1cc(C(F)(F)F)cc(C(F)(F)F)c1)C2)N1CCCCC1` (stereo not drawn) [Example 148, 3,5-Bis(trifluoromethyl)benzyl 2-(1-(piperidin-1-yl)ethyl)-7,8-dihydro-4H-pyrazolo[1,5-a][1,4]diazepine-5(6H)-carboxylate], the IC50 is reported as at most 100 nM.
Work on `CC(c1cc2n(n1)CCCN(C(=O)OCc1cc(C(F)(F)F)cc(C(F)(F)F)c1)C2)N1CCC(C(=O)O)CC1` (stereo not drawn) [Example 149, 1-(1-(5-(((3,5-Bis(trifluoromethyl)benzyl)oxy)carbonyl)-5,6,7,8-tetrahydro-4H-pyrazolo[1,5-a][1,4]diazepin-2-yl)ethyl)piperidine-4-carboxylic acid] yielded an IC50 of at most 500 nM.
`O=C(OCc1cc(Cl)cc(C(F)(F)F)c1)N1CCCn2nc(CNC3=NCCS3)cc2C1` [Example 153, 3-chloro-5-(trifluoromethyl)benzyl 2-(((4,5-dihydrothiazol-2-yl)amino)methyl)-7,8-dihydro-4H-pyrazolo[1,5-a][1,4]diazepine-5(6H)-carboxylate] was tested, and the IC50 was at most 100 nM.
Work on `O=C(OCc1cc(Cl)cc(C(F)(F)F)c1)N1CCCn2nc(CNC3=NCCN3)cc2C1` [Example 154, 3-chloro-5-(trifluoromethyl)benzyl 2-(((4,5-dihydro-1H-imidazol-2-yl)amino)methyl)-7,8-dihydro-4H-pyrazolo[1,5-a][1,4]diazepine-5(6H)-carboxylate] yielded an IC50 of at most 250 nM.
`CC(NC1=NCCS1)c1cc2n(n1)CCCN(C(=O)OCc1cc(Cl)cc(C(F)(F)F)c1)C2` (stereo not drawn) [Example 156, 3-chloro-5-(trifluoromethyl)benzyl 2-(1-((4,5-dihydrothiazol-2-yl)amino)ethyl)-7,8-dihydro-4H-pyrazolo[1,5-a][1,4]diazepine-5(6H)-carboxylate] showed an IC50 of at most 100 nM.
`CC(NC1=NCCN1)c1cc2n(n1)CCCN(C(=O)OCc1cc(Cl)cc(C(F)(F)F)c1)C2` (stereo not drawn) [Example 157, 3-chloro-5-(trifluoromethyl)benzyl 2-(1-((4,5-dihydro-1H-imidazol-2-yl)amino)ethyl)-7,8-dihydro-4H-pyrazolo[1,5-a][1,4]diazepine-5(6H)-carboxylate] was tested, and the IC50 was at most 250 nM.
In the case of `O=C(OCc1cc(Cl)cc(C(F)(F)F)c1)N1CCCn2nc(C(=O)N3CCNCC3)cc2C1` [Example 158, 3-chloro-5-(trifluoromethyl)benzyl 2-(piperazine-1-carbonyl)-7,8-dihydro-4H-pyrazolo[1,5-a][1,4]diazepine-5(6H)-carboxylate], the IC50 is reported as at most 100 nM.
`CN1CC2CCC1CN2C(=O)c1cc2n(n1)CCCN(C(=O)OCc1cc(Cl)cc(C(F)(F)F)c1)C2` (stereo not drawn) [Example 159, 3-chloro-5-(trifluoromethyl)benzyl 2-(5-methyl-2,5-diazabicyclo[2.2.2]octane-2-carbonyl)-7,8-dihydro-4H-pyrazolo[1,5-a][1,4]diazepine-5(6H)-carboxylate] gave an IC50 of at most 100 nM.
